Test results published in patent US20130136722A1, “Methods of Ex Vivo Expansion of Blood Progenitor Cells, and Generation of Composite Grafts” (The Board of Trustees of The University of Illinois, priority 2011, published 2013).
Several values for one entry are separate records, joined by “and”; a condition that tells them apart may be missing. Identical values can stand only once.

Tested on: NOD/SCID mice
Assay: NOD/SCID transplantation assay: in vivo hematopoietic reconstitution by expanded CB cells
Set-up: species or system mouse
Protocol: Immunodeficient nonobese diabetic/ltsz-scid/scid (NOD/SCID) mice were purchased from Jackson Laboratories (Bar Harbor, Me.) and transplantation assays were performed as described (Araki et al., 2009, Id.; Araki et al., 2007, Id.; Taswell, 1981, Id.). Equal number of primary CD34^+ cells or the progeny of an equal initial number of CD34^+ cells following culture were injected per mouse intravenously. Mice were sacrificed 8 weeks after transplantation, and bone marrow (BM) cells from each mouse were analyzed by flow cytometry to detect multilineage human cell engraftment.
Furthermore, hematopoietic stem cell potency of CMA-treated cord blood cells was evaluated in vivo by assaying hematopoietic repopulation potential of CD34^+ cells expanded with various CMAs. In these experiments, non-obese diabetic/severely combined immunodeficient (NOD/SCID) mice were transplanted with primary CD34^+ cells or the equivalent starting number of CD34^+ cells expanded in culture media supplemented by cytokines alone or in combination with 5azaD/TSA, VPA or 5azaD/VPA. […] Cells from cultures expanded with cytokines and VPA were capable of human hematopoietic engraftment in 2 out of 7 mice with a barely detectable level of chimerism (0.11%, 0.14%) (FIG. 2C).

Compound: CCCC(CCC)C(=O)O [VPA, valproic acid]
- regenerative capacity (in vivo hematopoietic reconstitution function) of expanded CD34+ cells (Day 9 expanded CD34+ cells): possessing regenerative potential
- multilineage differentiation of expanded cells following transplantation (FIG. 2D): retained the ability to differentiate into both myeloid and lymphoid lineages
- mice with human hematopoietic engraftment of mice transplanted (cells expanded with cytokines plus CMA, i.v., analysed 8 weeks after transplantation, FIG. 2C): 2 out of 7
- human hematopoietic chimerism (human CD45+ cells in mouse bone marrow) (engrafted recipient mice, FIG. 2C): 0.11% and 0.14%
